According to patent publication US9809865B2, “Anti-microbial agent from Paenibacillus sp. and methods and uses thereof” (Best Environmental Technologies, Inc., priority 2009, dated 2017):

Key:
[1] = tested on: Escherichia coli RR1; assay: Sensitivity to enzymes, detergents or urea, residual activity by agar diffusion test; assay type: physicochemical; settings: polymyxin B 0.1 μg ml^−1
Protocol: The sensitivities of the antimicrobial agent to proteases (all from Sigma-Aldrich, Oakville, ON) or other agents was tested by treating P. polymyxa JB05-01-1 culture supernatant with 2 mg ml^−1 final concentration of proteinase K (Tritirachium album), α-chymotrypsin (bovine pancreas), lipase (Sigma-Aldrich, Oakville, ON), trypsin (porcine pancreas), urea (Sigma-Aldrich, St. Louis Mo.), sodium dodecyl sulfate (SDS) (Sigma-Aldrich, St. Louis Mo.) for 1 h at 37° C. (Motta et al. 2007). Thermal stability of the antimicrobial activity was determined by holding aliquots (1000 μl) of 20 h culture supernatant at temperatures ranging from 50° C. to 90° C. for 30 min or at 100° C. for 10 min. The effect of pH was determined by adjusting the pH of P. polymyxa JB05-01-1 culture supernatant from 2 to 9 using 5 M HCl or NaOH. The activity of each sample was compared with the activity of untreated P. polymyxa JB05-01 culture supernatant at pH 6.8.
The effect of several organic solvents was evaluated by stirring 20 h culture supernatant for 2 h with 10% (v/v) acetonitrile, hexane, propanol, ethanol, toluene, acetone, butanol or methanol (all solvents were obtained from Sigma-Aldrich, St. Louis Mo.). Residual antimicrobial activities were tested using the agar diffusion assay against E. coli RR1 as described herein, with controls for effects of residual solvent.

[2] = tested on: Paenibacillus polymyxa ATCC 7070; assay: Agar well diffusion method; assay type: cell-based; parameters: key: No inhibition at concentrations up of 0.1 μgml−1.; +: Diameter of the inhibition zone 10 ± 2 mm; ++: Diameter of the inhibition zone 16 ± 2 mm; +++: Diameter of the inhibition zone 28 ± 2 mm; settings: medium LB; polymyxin B at 0.1 μg ml^−1
Protocol: (§1) The qualitative antimicrobial spectrum of P. polymyxa culture supernatant was determined using the agar well diffusion method (Wolf and Gibbons 1996). Briefly, a 25-ml volume of molten tryptic soy agar (0.75% agar w/v) was cooled to 47° C. and seeded with 1% (v/v) overnight TSB culture of an indicator strain. The seeded agar was then poured into a sterile Petri plate and allowed to solidify at room temperature. Wells (7 mm) were cut in the solidified agar using a sterile metal cork borer and filled with 80 μl of supernatant. The plates were left at 5° C. for 2 h to allow diffusion of the tested aliquot and then incubated aerobically for 18 h at 30° C. Absence or presence of inhibition zones as well as their diameters were recorded.

[3] = tested on: Paenibacillus polymyxa JB05-01-1; assay: Agar well diffusion method; assay type: cell-based; parameters: key: No inhibition at concentrations up of 0.1 μgml−1.; +: Diameter of the inhibition zone 10 ± 2 mm; ++: Diameter of the inhibition zone 16 ± 2 mm; +++: Diameter of the inhibition zone 28 ± 2 mm; settings: medium LB; polymyxin B at 0.1 μg ml^−1
Protocol: as §1

[4] = tested on: Listeria innocua HPB 13; assay: Agar well diffusion method; assay type: cell-based; parameters: key: No inhibition at concentrations up of 0.1 μgml−1.; +: Diameter of the inhibition zone 10 ± 2 mm; ++: Diameter of the inhibition zone 16 ± 2 mm; +++: Diameter of the inhibition zone 28 ± 2 mm; settings: medium TSB; polymyxin B at 0.1 μg ml^−1
Protocol: as §1

[5] = tested on: Listeria ivanovii HPB 28; assay: Agar well diffusion method; assay type: cell-based; parameters: key: No inhibition at concentrations up of 0.1 μgml−1.; +: Diameter of the inhibition zone 10 ± 2 mm; ++: Diameter of the inhibition zone 16 ± 2 mm; +++: Diameter of the inhibition zone 28 ± 2 mm; settings: medium TSB; polymyxin B at 0.1 μg ml^−1
Protocol: as §1

[6] = tested on: Escherichia coli LRC SA1650; assay: Agar well diffusion method; assay type: cell-based; settings: medium TSB; polymyxin B at 0.1 μg ml^−1
Protocol: as §1

[7] = tested on: Pantoea agglomerans LRC BC1; assay: Agar well diffusion method; assay type: cell-based; settings: medium TSB; polymyxin B at 0.1 μg ml^−1
Protocol: as §1

[8] = tested on: Pseudomonas fluorescens LRC R73; assay: Agar well diffusion method; assay type: cell-based; settings: medium TSB; polymyxin B at 0.1 μg ml^−1
Protocol: as §1

[9] = tested on: Escherichia coli LRC TB1; assay: Agar well diffusion method; assay type: cell-based; settings: medium TSB; polymyxin B at 0.1 μg ml^−1
Protocol: as §1

[10] = tested on: Escherichia coli LRC RR1; assay: Agar well diffusion method; assay type: cell-based; settings: medium TSB; polymyxin B at 0.1 μg ml^−1
Protocol: as §1

[11] = tested on: Fibrobacter succinogenes ATCC 19169; assay: Agar well diffusion method; assay type: cell-based; settings: medium L-10; polymyxin B at 0.1 μg ml^−1
Protocol: as §1, with “Briefly, a 25-ml volume of molten tryptic soy agar (0.75% agar w/v) was cooled to 47° C. and seeded with 1% (v/v) overnight TSB culture of an indicator strain.” left out

[12] = tested on: Butyrivibrio fibrisolvens LRC OR85; assay: Agar well diffusion method; assay type: cell-based; settings: medium L-10; polymyxin B at 0.1 μg ml^−1
Protocol: as §1, with “Briefly, a 25-ml volume of molten tryptic soy agar (0.75% agar w/v) was cooled to 47° C. and seeded with 1% (v/v) overnight TSB culture of an indicator strain.” left out

[13] = tested on: E. coli RR1; assay: Effect of culture supernatant on exponentially growing E. coli RR1 (viable counts, OD600); assay type: cell-based, Escherichia coli; settings: viability of E. coli RR1 cells; OD600nm constant
Protocol: To determine the effect of P. polymyxa JB05-01-1 culture supernatant, E. coli RR1 cells were cultivated in the presence of concentrated P. polymyxa culture supernatant containing JB05-01-1 at final total activity of 0, 32, and 96 AU/ml. The OD600nm of culture was determined every two hours using a multi-detection microplate reader (Bio-Teck instrument Inc, Winooski, Vt., USA). The corresponding final cell concentration expressed as CFU/ml was determined as described by Naghmouchi et al. (2008). The inhibitory activity (I.A.) of culture supernatant containing JB05-01-1 was calculated as a percentage, I.A.=100-100[OD600(x)/OD600(i)], where (x) is culture supernatant containing JB05-01-1 at the corresponded total activity and (i) is the control culture. Data was reported as means of duplicate analyses.

[14] = tested on: Bacillus circulans LRC 9E2; assay: Agar well diffusion method; assay type: cell-based; parameters: key: No inhibition at concentrations up of 0.1 μgml−1.; +: Diameter of the inhibition zone 10 ± 2 mm; ++: Diameter of the inhibition zone 16 ± 2 mm; +++: Diameter of the inhibition zone 28 ± 2 mm; settings: medium LB; polymyxin B at 0.1 μg ml^−1
Protocol: as §1, with “Briefly, a 25-ml volume of molten tryptic soy agar (0.75% agar w/v) was cooled to 47° C. and seeded with 1% (v/v) overnight TSB culture of an indicator strain.” left out

[15] = tested on: Lactococcus lactis ATCC 7962; assay: Agar well diffusion method; assay type: cell-based; parameters: key: No inhibition at concentrations up of 0.1 μgml−1.; +: Diameter of the inhibition zone 10 ± 2 mm; ++: Diameter of the inhibition zone 16 ± 2 mm; +++: Diameter of the inhibition zone 28 ± 2 mm; settings: medium MRS; polymyxin B at 0.1 μg ml^−1
Protocol: as §1, with “Briefly, a 25-ml volume of molten tryptic soy agar (0.75% agar w/v) was cooled to 47° C. and seeded with 1% (v/v) overnight TSB culture of an indicator strain.” left out

[16] = tested on: Enterococcus mundtii LRC 8369; assay: Agar well diffusion method; assay type: cell-based; parameters: key: No inhibition at concentrations up of 0.1 μgml−1.; +: Diameter of the inhibition zone 10 ± 2 mm; ++: Diameter of the inhibition zone 16 ± 2 mm; +++: Diameter of the inhibition zone 28 ± 2 mm; settings: medium LB; polymyxin B at 0.1 μg ml^−1
Protocol: as §1, with “Briefly, a 25-ml volume of molten tryptic soy agar (0.75% agar w/v) was cooled to 47° C. and seeded with 1% (v/v) overnight TSB culture of an indicator strain.” left out

[17] = tested on: Streptococcus bovis ATCC 33317; assay: Agar well diffusion method; assay type: cell-based; parameters: key: No inhibition at concentrations up of 0.1 μgml−1.; +: Diameter of the inhibition zone 10 ± 2 mm; ++: Diameter of the inhibition zone 16 ± 2 mm; +++: Diameter of the inhibition zone 28 ± 2 mm; settings: medium LB; polymyxin B at 0.1 μg ml^−1
Protocol: as §1, with “Briefly, a 25-ml volume of molten tryptic soy agar (0.75% agar w/v) was cooled to 47° C. and seeded with 1% (v/v) overnight TSB culture of an indicator strain.” left out

[18] = tested on: Paenibacillus polymyxa ATCC 43865; assay: Agar well diffusion method; assay type: cell-based; parameters: key: No inhibition at concentrations up of 0.1 μgml−1.; +: Diameter of the inhibition zone 10 ± 2 mm; ++: Diameter of the inhibition zone 16 ± 2 mm; +++: Diameter of the inhibition zone 28 ± 2 mm; settings: medium LB; polymyxin B at 0.1 μg ml^−1
Protocol: as §1, with “Briefly, a 25-ml volume of molten tryptic soy agar (0.75% agar w/v) was cooled to 47° C. and seeded with 1% (v/v) overnight TSB culture of an indicator strain.” left out

[19] = tested on: Pediococcus pentosaceus ATCC 25745; assay: Agar well diffusion method; assay type: cell-based; parameters: key: No inhibition at concentrations up of 0.1 μgml−1.; +: Diameter of the inhibition zone 10 ± 2 mm; ++: Diameter of the inhibition zone 16 ± 2 mm; +++: Diameter of the inhibition zone 28 ± 2 mm; settings: medium LB; polymyxin B at 0.1 μg ml^−1
Protocol: as §1, with “Briefly, a 25-ml volume of molten tryptic soy agar (0.75% agar w/v) was cooled to 47° C. and seeded with 1% (v/v) overnight TSB culture of an indicator strain.” left out

[20] = tested on: Bacillus lecheniformis LRC 8422; assay: Agar well diffusion method; assay type: cell-based; parameters: key: No inhibition at concentrations up of 0.1 μgml−1.; +: Diameter of the inhibition zone 10 ± 2 mm; ++: Diameter of the inhibition zone 16 ± 2 mm; +++: Diameter of the inhibition zone 28 ± 2 mm; settings: medium LB; polymyxin B at 0.1 μg ml^−1
Protocol: as §1, with “Briefly, a 25-ml volume of molten tryptic soy agar (0.75% agar w/v) was cooled to 47° C. and seeded with 1% (v/v) overnight TSB culture of an indicator strain.” left out

[21] = tested on: Pediococcus acidilactici ATCC 25740; assay: Agar well diffusion method; assay type: cell-based; parameters: key: No inhibition at concentrations up of 0.1 μgml−1.; +: Diameter of the inhibition zone 10 ± 2 mm; ++: Diameter of the inhibition zone 16 ± 2 mm; +++: Diameter of the inhibition zone 28 ± 2 mm; settings: medium MRS; polymyxin B at 0.1 μg ml^−1
Protocol: as §1, with “Briefly, a 25-ml volume of molten tryptic soy agar (0.75% agar w/v) was cooled to 47° C. and seeded with 1% (v/v) overnight TSB culture of an indicator strain.” left out

For Polymyxin B, the “% of residual activity” value ([1]; Chymotrypsin 2 mg ml^−1, 1 h at 37° C.) was 79.5%, the “% of residual activity” value ([1]; Lipase 2 mg ml^−1, 1 h at 37° C.) was 58.3% and the “% of residual activity” value ([1]; Proteinase K 2 mg ml^−1, 1 h at 37° C.) was 4.5%. The “% of residual activity” value ([1]; SDS 2 mg ml^−1, 1 h at 37° C.) was 70.1%, the “% of residual activity” value ([1]; Trypsin 2 mg ml^−1, 1 h at 37° C.) was 62.5% and the “% of residual activity” value ([1]; Urea 2 mg ml^−1, 1 h at 37° C.) was 62.5%. For the same substance, the “Inhibition (inhibition zone)” value [2] was “−”, the “Inhibition (inhibition zone)” value [3] was “−” and the “Inhibition (inhibition zone)” value [4] was “−”. For the same substance, the “Inhibition (inhibition zone)” value [5] was “−”, the “Inhibition (inhibition zone)” value [6] was “++ (Diameter of the inhibition zone 16 ± 2 mm)” and the “Inhibition (inhibition zone)” value [7] was “+ (Diameter of the inhibition zone 10 ± 2 mm)”. For the same substance, the “Inhibition (inhibition zone)” value [8] was “++ (Diameter of the inhibition zone 16 ± 2 mm)”, the “Inhibition (inhibition zone)” value [9] was “+++ (Diameter of the inhibition zone 28 ± 2 mm)” and the “Inhibition (inhibition zone)” value [10] was “+++ (Diameter of the inhibition zone 28 ± 2 mm)”. The “Inhibition (inhibition zone)” value [11] was “+ (Diameter of the inhibition zone 10 ± 2 mm)”, the “Inhibition (inhibition zone)” value [12] was “+ (Diameter of the inhibition zone 10 ± 2 mm)” and the Mode of action [13] was “bactericidal action”. For the same substance, the “Inhibition (inhibition zone)” value [14] was “−”, the “Inhibition (inhibition zone)” value [15] was “−” and the “Inhibition (inhibition zone)” value [16] was “−”. The “Inhibition (inhibition zone)” value [17] was “−”, the “Inhibition (inhibition zone)” value [18] was “−” and the “Inhibition (inhibition zone)” value [19] was “−”. For the same substance, the “Inhibition (inhibition zone)” value [20] was “−” and the “Inhibition (inhibition zone)” value [21] was “−”.
